Test results reported in patent publication US20260355212A1 (priority 2022, published 2026).
Read-outs that look alike come from different tables or passages of the source.

How the values were obtained:
SARS-CoV-2 Mpro = SARS-CoV-2 Mpro (Severe acute respiratory syndrome coronavirus 2, UniProt P0DTD1); test: SARS-CoV-2 Mpro enzymatic inhibition assay (fluorescence); assay type: biochemical
Procedure, shortened: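 A fluorescence readout (340 nm excitation, 490 nm emission) was taken after the substrate reaction ran 60 min at 30° C. Before substrate addition, E. coli-expressed protease and compound (3-fold dilutions, 10 doses, duplicates) sat together 30 min at room temperature. Percent inhibition was fitted by variable-slope nonlinear regression to give IC50.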

HCoV-229E Mpro = HCoV-229E Mpro (Human coronavirus 229E, UniProt P0C6X1); test: HCoV-229E Mpro enzymatic inhibition assay (fluorescence); assay type: biochemical
Sequence of HCoV-229E Mpro (P0C6X1 2966-3267 limits assumed): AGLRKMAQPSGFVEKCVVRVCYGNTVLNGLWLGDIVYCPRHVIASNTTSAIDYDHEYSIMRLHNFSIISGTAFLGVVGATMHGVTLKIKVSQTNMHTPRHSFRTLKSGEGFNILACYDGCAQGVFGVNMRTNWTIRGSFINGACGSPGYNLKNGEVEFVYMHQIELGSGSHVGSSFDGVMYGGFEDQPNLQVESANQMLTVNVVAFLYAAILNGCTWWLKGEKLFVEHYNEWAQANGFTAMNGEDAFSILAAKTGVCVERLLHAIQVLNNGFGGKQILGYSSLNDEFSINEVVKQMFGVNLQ

HCoV-HKU1 Mpro = HCoV-HKU1 Mpro (Human coronavirus HKU1, UniProt P0C6X2); test: HCoV-HKU1 Mpro enzymatic inhibition assay (fluorescence); assay type: biochemical
Sequence of HCoV-HKU1 Mpro (P0C6X2 3335-3637 limits assumed): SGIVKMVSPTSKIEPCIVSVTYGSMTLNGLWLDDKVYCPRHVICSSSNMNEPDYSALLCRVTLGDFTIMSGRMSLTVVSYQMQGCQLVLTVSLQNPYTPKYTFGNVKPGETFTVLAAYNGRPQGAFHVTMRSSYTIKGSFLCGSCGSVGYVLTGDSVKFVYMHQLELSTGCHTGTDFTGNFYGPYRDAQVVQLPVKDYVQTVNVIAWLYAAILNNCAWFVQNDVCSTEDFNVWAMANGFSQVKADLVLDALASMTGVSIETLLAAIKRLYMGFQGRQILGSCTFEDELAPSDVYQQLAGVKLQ
Procedure, shortened: (§1)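 Fluorescence at 340/490 nm after 60 min substrate cleavage at 30 °C is the read-out. Purified E. coli-expressed protease had been pre-incubated 30 min at room temperature with 10-dose, 3-fold compound series in duplicate.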

MERS Mpro = MERS Mpro (Middle East respiratory syndrome-related coronavirus, UniProt K9N7C7); test: biochemical; parameters: species or system MERS-CoV
Sequence of MERS Mpro (K9N7C7 3248-3553 limits assumed): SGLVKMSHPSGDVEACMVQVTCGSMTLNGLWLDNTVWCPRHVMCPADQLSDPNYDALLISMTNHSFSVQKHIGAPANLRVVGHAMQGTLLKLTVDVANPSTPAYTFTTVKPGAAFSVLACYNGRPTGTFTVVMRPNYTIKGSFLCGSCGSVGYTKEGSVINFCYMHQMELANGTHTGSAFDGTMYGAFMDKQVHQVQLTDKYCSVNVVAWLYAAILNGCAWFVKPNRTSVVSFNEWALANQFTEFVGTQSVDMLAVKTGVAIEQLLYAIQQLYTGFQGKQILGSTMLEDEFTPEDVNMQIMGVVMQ

HCoV-NL63 Mpro = HCoV-NL63 Mpro (Human coronavirus NL63, UniProt P0C6X5); test: HCoV-NL63 Mpro enzymatic inhibition assay (fluorescence); assay type: biochemical
Sequence of HCoV-NL63 Mpro (P0C6X5 2940-3242 limits assumed): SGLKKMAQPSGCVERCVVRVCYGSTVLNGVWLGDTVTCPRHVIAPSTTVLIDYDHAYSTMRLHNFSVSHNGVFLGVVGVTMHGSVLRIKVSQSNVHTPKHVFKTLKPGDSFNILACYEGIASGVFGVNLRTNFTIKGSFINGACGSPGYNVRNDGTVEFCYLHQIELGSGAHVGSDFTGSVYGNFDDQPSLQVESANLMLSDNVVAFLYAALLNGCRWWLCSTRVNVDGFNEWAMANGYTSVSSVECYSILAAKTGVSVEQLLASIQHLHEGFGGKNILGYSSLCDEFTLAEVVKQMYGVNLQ
Procedure, shortened: as §1

HCoV-OC43 Mpro = HCoV-OC43 Mpro (Human coronavirus OC43, UniProt P0C6X6); test: HCoV-OC43 Mpro enzymatic inhibition assay (fluorescence); assay type: biochemical
Sequence of HCoV-OC43 Mpro (P0C6X6 3247-3549 limits assumed): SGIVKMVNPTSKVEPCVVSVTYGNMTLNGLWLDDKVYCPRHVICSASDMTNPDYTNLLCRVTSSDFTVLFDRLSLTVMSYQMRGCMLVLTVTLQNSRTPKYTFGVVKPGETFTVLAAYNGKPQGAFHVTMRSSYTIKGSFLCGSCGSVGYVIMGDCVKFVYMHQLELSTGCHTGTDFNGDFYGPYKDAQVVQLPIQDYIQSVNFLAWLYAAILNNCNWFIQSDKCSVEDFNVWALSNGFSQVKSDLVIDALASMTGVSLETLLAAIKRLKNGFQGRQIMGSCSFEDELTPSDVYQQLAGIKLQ
Procedure, shortened: as §1

SARS-CoV-1 Mpro = SARS-CoV-1 Mpro (Severe acute respiratory syndrome coronavirus, UniProt P0C6X7); test: biochemical
[1] = mean, 25 nM protein, 25 μM substrate, 30 min pre-incubation, 60 min at 30° C., read-out: Mpro_SARS-CoV-2 mean IC50

Structure (SMILES) | IC50 (SARS-CoV-2 Mpro; [1]) | IC50 (HCoV-229E Mpro) | IC50 (HCoV-HKU1 Mpro) | IC50 (MERS Mpro) | IC50 (HCoV-NL63 Mpro) | IC50 (HCoV-OC43 Mpro) | IC50 (SARS-CoV-1 Mpro) | IC50 (SARS-CoV-2 Mpro)
CC(C)c1cccc2[nH]c(C(=O)N3C[C@H]4[C@@H]([C@H]3C(=O)N[C@H](C=O)C[C@@H]3CCNC3=O)C4(C)C)cc12 [Compound 34, (1R,2S,5S)-3-(4-isopropyl-1H-indole-2-carbonyl)-6,6-dimethyl-N—((S)-1-oxo-3-((S)-2-oxopyrrolidin-3-yl)propan-2-yl)-3-azabicyclo[3.1.0]hexane-2-carboxamide] | 19.8 nM | 37.7 nM | 20.8 nM | 278 nM | 65.3 nM | 57.9 nM | 35.3 nM | –
NC(=O)C(=O)[C@H](C[C@@H]1CCNC1=O)NC(=O)[C@@H]1CC2(CC2)CN1C(=O)c1cc2ccccc2[nH]1 [Compound 35, (S)—N—((S)-4-Amino-3,4-dioxo-1-((S)-2-oxopyrrolidin-3-yl)butan-2-yl)-5-(1H-indole-2-carbonyl)-5-azaspiro[2.4]heptane-6-carboxamide] | – | 37.4 nM | 11.4 nM | 179 nM | 48.5 nM | 64.4 nM | 65.8 nM | 20.3 nM
COc1ccc(F)c2[nH]c(C(=O)N3C[C@H]4[C@@H]([C@H]3C(=O)N[C@H](C=O)C[C@@H]3CCNC3=O)C4(C)C)cc12 [Compound 36, (1R,2S,5S)-3-(7-Fluoro-4-methoxy-1H-indole-2-carbonyl)-6,6-dimethyl-N—((S)-1-oxo-3-((S)-2-oxopyrrolidin-3-yl)propan-2-yl)-3-azabicyclo[3.1.0]hexane-2-carboxamide] | – | 33.2 nM | 35.7 nM | 245 nM | 51.7 nM | 42.7 nM | 31.7 nM | 20.6 nM
C[C@@H](C(=O)N1C[C@H]2[C@@H]([C@H]1C(=O)N[C@H](C=O)C[C@@H]1CCNC1=O)C2(C)C)c1ccccc1 [Compound 37, (1R,2S,5S)-6,6-dimethyl-N—((S)-1-oxo-3-((S)-2-oxopyrrolidin-3-yl)propan-2-yl)-3-((R)-2-phenylpropanoyl)-3-azabicyclo[3.1.0]hexane-2-carboxamide] | – | 45.6 nM | 36.4 nM | 242 nM | 188 nM | 36.7 nM | 40.4 nM | 20.6 nM
O=C[C@H](C[C@@H]1CCNC1=O)NC(=O)[C@@H]1C[C@@H](C2CCCCC2)CN1C(=O)c1cc2c(F)cccc2[nH]1 [Compound 38, (2S,4S)-4-Cyclohexyl-1-(4-fluoro-1H-indole-2-carbonyl)-N—((S)-1-oxo-3-((S)-2-oxopyrrolidin-3-yl)propan-2-yl)pyrrolidine-2-carboxamide] | – | 41.6 nM | 16 nM | 516 nM | 100 nM | 46 nM | 97 nM | 21 nM
CC(C)c1ccc(F)c2[nH]c(C(=O)N3C[C@H]4[C@@H]([C@H]3C(=O)N[C@H](C=O)C[C@@H]3CCNC3=O)C4(C)C)cc12 [Compound 39, (1R,2S,5S)-3-(7-fluoro-4-isopropyl-1H-indole-2-carbonyl)-6,6-dimethyl-N—((S)-1-oxo-3-((S)-2-oxopyrrolidin-3-yl)propan-2-yl)-3-azabicyclo[3.1.0]hexane-2-carboxamide] | – | 26.4 nM | 16 nM | 208 nM | 40 nM | 35.1 nM | 30 nM | 21.6 nM
CC1(C)[C@@H]2[C@@H](C(=O)N[C@H](C=O)C[C@@H]3CCNC3=O)N(C(=O)Cc3ccc4c(c3)CCCC4)C[C@@H]21 [Compound 40, (1R,2S,5S)-6,6-Dimethyl-N—((S)-1-oxo-3-((S)-2-oxopyrrolidin-3-yl)propan-2-yl)-3-(2-(5,6,7,8-tetrahydronaphthalen-2-yl)acetyl)-3-azabicyclo[3.1.0]hexane-2-carboxamide] | – | 40.1 nM | 20.4 nM | 237 nM | 88.6 nM | 45.7 nM | 35.3 nM | 21.7 nM
CC1(C)[C@@H]2[C@@H](C(=O)N[C@H](C=O)C[C@@H]3CCNC3=O)N(C(=O)c3cc4c(Cl)cccc4[nH]3)C[C@@H]21 [Compound 43, (1R,2S,5S)-3-(4-Chloro-1H-indole-2-carbonyl)-6,6-dimethyl-N—((S)-1-oxo-3-((S)-2-oxopyrrolidin-3-yl)propan-2-yl)-3-azabicyclo[3.1.0]hexane-2-carboxamide] | – | 39.3 nM | 18 nM | 236 nM | 47.5 nM | 45.4 nM | 25.8 nM | 22.1 nM
O=C[C@H](C[C@@H]1CCNC1=O)NC(=O)[C@@H]1CC2(CC2)CN1C(=O)c1cc2ccccc2[nH]1 [Compound 47, (S)-5-(1H-Indole-2-carbonyl)-N—((S)-1-oxo-3-((S)-2-oxopyrrolidin-3-yl)propan-2-yl)-5-azaspiro[2.4]heptane-6-carboxamide] | 22.8 nM | 47.8 nM | 16.8 nM | 139 nM | 48 nM | 64 nM | 43 nM | –
CC(C)(C(=O)N1C[C@H]2[C@@H]([C@H]1C(=O)N[C@H](C=O)C[C@@H]1CCNC1=O)C2(C)C)c1ccccc1 [Compound 48, (1R,2S,5S)-6,6-dimethyl-3-(2-methyl-2-phenylpropanoyl)-N—((S)-1-oxo-3-((S)-2-oxopyrrolidin-3-yl)propan-2-yl)-3-azabicyclo[3.1.0]hexane-2-carboxamide] | 22.9 nM | 86.9 nM | 73.4 nM | 484 nM | 376 nM | 164 nM | 53.6 nM | –
CC1(C)[C@@H]2[C@@H](C(=O)N[C@H](C=O)C[C@@H]3CCNC3=O)N(C(=O)c3cc4c(F)ccc(Cl)c4[nH]3)C[C@@H]21 [Compound 49, (1R,2S,5S)-3-(7-chloro-4-fluoro-1H-indole-2-carbonyl)-6,6-dimethyl-N—((S)-1-oxo-3-((S)-2-oxopyrrolidin-3-yl)propan-2-yl)-3-azabicyclo[3.1.0]hexane-2-carboxamide] | – | 31.5 nM | 23.4 nM | 202 nM | 57.6 nM | 37 nM | 29.4 nM | 23 nM
CC1(C)C[C@@H](C(=O)N[C@H](C=O)C[C@@H]2CCNC2=O)N(C(=O)c2cc3c(F)cccc3[nH]2)C1 [Compound 51, (S)-1-(4-Fluoro-1H-indole-2-carbonyl)-4,4-dimethyl-N—((S)-1-oxo-3-((S)-2-oxopyrrolidin-3-yl)propan-2-yl)pyrrolidine-2-carboxamide] | – | 27.3 nM | 13 nM | 192 nM | 22.2 nM | 21.9 nM | 38 nM | 24.4 nM
CC1CCC(CC(=O)N2C[C@H]3[C@@H]([C@H]2C(=O)N[C@H](C=O)C[C@@H]2CCNC2=O)C3(C)C)CC1 (stereo partly drawn) [Compound 52, (1R,2S,5S)-6,6-dimethyl-3-(2-(4-methylcyclohexyl)acetyl)-N—((S)-1-oxo-3-((S)-2-oxopyrrolidin-3-yl)propan-2-yl)-3-azabicyclo[3.1.0]hexane-2-carboxamide] | – | 31.4 nM | 25 nM | 214 nM | 61.3 nM | 52 nM | 32.6 nM | 24.6 nM
CC1(C)[C@@H]2[C@@H](C(=O)N[C@H](C=O)C[C@@H]3CCNC3=O)N(C(=O)CC3CCCCC3)C[C@@H]21 [Compound 53, (1R,2S,5S)-3-(2-cyclohexylacetyl)-6,6-dimethyl-N—((S)-1-oxo-3-((S)-2-oxopyrrolidin-3-yl)propan-2-yl)-3-azabicyclo[3.1.0]hexane-2-carboxamide] | 25 nM | 29.7 nM | 25.6 nM | 326 nM | 66.5 nM | 26.3 nM | 45.7 nM | –
CC1(C)[C@@H]2[C@@H](C(=O)N[C@H](C=O)C[C@@H]3CCNC3=O)N(C(=O)CN3CCCCCC3)C[C@@H]21 [Compound 55, (1R,2S,5S)-3-(2-(Azepan-1-yl)acetyl)-6,6-dimethyl-N—((S)-1-oxo-3-((S)-2-oxopyrrolidin-3-yl)propan-2-yl)-3-azabicyclo[3.1.0]hexane-2-carboxamide] | – | 39.3 nM | 54.8 nM | 317 nM | 70.2 nM | 81 nM | 74.6 nM | 25.5 nM
COc1ccc2cc(C(=O)N3C[C@H]4[C@@H]([C@H]3C(=O)N[C@H](C=O)C[C@@H]3CCNC3=O)C4(C)C)[nH]c2c1 [Compound 56, (1R,2S,5S)-3-(6-Methoxy-1H-indole-2-carbonyl)-6,6-dimethyl-N—((S)-1-oxo-3-((S)-2-oxopyrrolidin-3-yl)propan-2-yl)-3-azabicyclo[3.1.0]hexane-2-carboxamide] | – | 42.6 nM | 12.8 nM | 291 nM | 59.9 nM | 59.8 nM | 64.7 nM | 25.7 nM
